Data set [1] can be described thus: Cell viability assay (AlamarBlue) in HepAD38 cells. Conditions: human. (In general: The colour change of resazurin is a common sign of viable cells or microbes.)
For a further data set, the system named is HBV. The data set can be described thus: Determination of HBV DNA from the supernatants of HepAD38 cells (anti-HBV activity). The class given is cell-based, hepatitis B virus. The settings on record: Hepatitis B virus, 144 h; HBV DNA in HepAD38 supernatant, day 6, qPCR; read-out: Cell Activity (EC50). The gist of the method: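 HepAD38 cells, tetracycline withdrawn to induce HBV, treated with serial half-log compound dilutions; on day 6 HBV DNA purified from filtered supernatant and quantified by real-time PCR against HBV plasmid standards; EC50 from relative copy numbers by non-linear regression, three experiments in triplicate.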
In general terms: In qPCR the cycle at which signal appears reflects the starting amount.

The target of another data set is T1, HBV core protein (UniProt P03146).
T1 construct: fused on or other part: BODIPY-FL maleimide label on the C-terminal Cys150
The data set can be described thus: Biochemical capsid assembly assay (fluorescence quenching). On the set-up: species or system hepatitis B virus. The settings on record: read-out: Assembly Activity (IC50); BODIPY-FL labelled core protein, 300 μM NaCl, read 6 min after start. The method, boiled down:
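Purified E. coli-expressed HBV core protein (aa 1-149 plus Cys150), BODIPY-FL maleimide-labelled, at 1.0-2.0 μM in 50 mM HEPES pH 7.5 with 0.5% DMSO was used. Compounds were tested at 8 concentrations (0.5-log dilutions from 100, 31.6 or 10 μM). Assembly was started with NaCl ([…]), and fluorescence quenching was read after 6 min (ex 477/em 525 nm). EC50 was determined by non-linear regression.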

This note sets out measurements from patent publication US11236087B2, “Highly active pyrazolo-piperidine substituted indole-2-carboxamides active against the hepatitis B virus (HBV)” (AiCuris GmbH & Co. KG, priority 2017, dated 2022).

By CC50 is commonly meant the concentration giving 50% cytotoxicity. Lower therefore signals greater toxicity to the cells. As a reminder, the EC50 is the concentration at which the effect is half-maximal. Usually IC50 stands for the concentration at which inhibition is half-maximal.

T1 sequence (P03146 whole entry, looked up, the tested form may be a part): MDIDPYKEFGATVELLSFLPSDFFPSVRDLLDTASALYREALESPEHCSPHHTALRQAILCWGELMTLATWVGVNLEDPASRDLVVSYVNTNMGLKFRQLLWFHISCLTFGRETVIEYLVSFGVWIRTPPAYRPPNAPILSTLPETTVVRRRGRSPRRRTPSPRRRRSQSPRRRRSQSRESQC

In the case of `CN(C(=O)c1[nH]nc2c1CN(C(=O)c1cc3c(Cl)cccc3[nH]1)CC2)C1CC1` [Example 326, 5-(4-chloro-1H-indole-2-carbonyl)-N-cyclopropyl-N-methyl-2H,4H,5H,6H,7H-pyrazolo[4,3-c]pyridine-3-carboxamide], the CC50 at 6 days in data set [1] was > 10 µM. The EC50 in the data set with HBV is < 1 µM. Further, at HBV core protein, the IC50 was < 5 µM.
The matching figures for `Cc1cc(F)cc2[nH]c(C(=O)N3CCc4n[nH]c(C(=O)N(C)C5CC5)c4C3)cc12` [Example 327, N-cyclopropyl-5-(6-fluoro-4-methyl-1H-indole-2-carbonyl)-N-methyl-2H,4H,5H,6H,7H-pyrazolo[4,3-c]pyridine-3-carboxamide]: > 10 µM, < 1 µM and < 5 µM.
`CCc1cccc2[nH]c(C(=O)N3CCc4n[nH]c(C(=O)N(C)C5CC5)c4C3)cc12` [Example 328, N-cyclopropyl-5-(4-ethyl-1H-indole-2-carbonyl)-N-methyl-2H,4H,5H,6H,7H-pyrazolo[4,3-c]pyridine-3-carboxamide]: the CC50 at 6 days in data set [1] is > 10 µM. Moreover, in the data set on HBV, the EC50 was < 1 µM. For the same compound, at HBV core protein, the IC50 is < 5 µM.
On to `CN(C(=O)c1[nH]nc2c1CN(C(=O)c1cc3cc(F)c(Cl)cc3[nH]1)CC2)C1CC1` [Example 329, 5-(6-chloro-5-fluoro-1H-indole-2-carbonyl)-N-cyclopropyl-N-methyl-2H,4H,5H,6H,7H-pyrazolo[4,3-c]pyridine-3-carboxamide], for which the CC50 at 6 days in data set [1] was > 10 µM. The EC50 with HBV was < 1 µM. In addition, the IC50 on HBV core protein was < 5 µM.
For `CCc1cc(F)cc2[nH]c(C(=O)N3CCc4n[nH]c(C(=O)N(C)C5CC5)c4C3)cc12` [Example 330, N-cyclopropyl-5-(4-ethyl-6-fluoro-1H-indole-2-carbonyl)-N-methyl-2H,4H,5H,6H,7H-pyrazolo[4,3-c]pyridine-3-carboxamide], the CC50 at 6 days in data set [1] is > 10 µM. In addition, in the data set on HBV, the EC50 is < 1 µM. Further, the IC50 on HBV core protein was < 5 µM.
The matching figures for `CCc1cccc2[nH]c(C(=O)N3CCc4[nH]nc(C56CC(C5)C6)c4C3)cc12` [Example 331, 2-(3-{bicyclo[1.1.1]pentan-1-yl}-1H,4H,5H,6H,7H-pyrazolo[4,3-c]pyridine-5-carbonyl)-4-ethyl-1H-indole]: > 10 µM, < 1 µM and < 5 µM.
The matching figures for `O=C(c1cc2c(F)c(F)ccc2[nH]1)N1CCc2[nH]nc(C34CC(C3)C4)c2C1` [Example 332, 2-(3-{bicyclo[1.1.1]pentan-1-yl}-1H,4H,5H,6H,7H-pyrazolo[4,3-c]pyridine-5-carbonyl)-4,5-difluoro-1H-indole]: > 10 µM, < 1 µM and < 5 µM.
In the case of `O=C(c1cc2c(F)cc(F)cc2[nH]1)N1CCc2[nH]nc(C34CC(C3)C4)c2C1` [Example 333, 2-(3-{bicyclo[1.1.1]pentan-1-yl}-1H,4H,5H,6H,7H-pyrazolo[4,3-c]pyridine-5-carbonyl)-4,6-difluoro-1H-indole], the CC50 at 6 days in data set [1] is > 10 µM. Further, in the data set with HBV, the 50% effective concentration (EC50) was < 1 µM. Further, the IC50 on HBV core protein was < 5 µM.
In the case of `CCc1cc(F)cc2[nH]c(C(=O)N3CCc4[nH]nc(C56CC(C5)C6)c4C3)cc12` [Example 334, 2-(3-{bicyclo[1.1.1]pentan-1-yl}-1H,4H,5H,6H,7H-pyrazolo[4,3-c]pyridine-5-carbonyl)-4-ethyl-6-fluoro-1H-indole], the CC50 at 6 days in data set [1] is > 10 µM. The EC50 in the data set with HBV was < 1 µM. Moreover, the IC50 on HBV core protein is < 5 µM.
`Cc1cc(F)cc2[nH]c(C(=O)N3CCc4[nH]nc(C56CC(C5)C6)c4C3)cc12` [Example 336, 2-(3-{bicyclo[1.1.1]pentan-1-yl}-1H,4H,5H,6H,7H-pyrazolo[4,3-c]pyridine-5-carbonyl)-6-fluoro-4-methyl-1H-indole]: in data set [1], the CC50 at 6 days was > 10 µM. Also, in the data set with HBV, the EC50 is < 1 µM. The IC50 at HBV core protein was < 5 µM.
In the case of `CCc1cccc2[nH]c(C(=O)N3CCc4[nH]nc(C5CCCO5)c4C3)cc12` (stereo not drawn) [Example 337, 4-ethyl-2-[3-(oxolan-2-yl)-1H,4H,5H,6H,7H-pyrazolo[4,3-c]pyridine-5-carbonyl]-1H-indole], the CC50 at 6 days in data set [1] is > 10 µM. Besides, in the data set on HBV, the EC50 was < 1 µM. Moreover, the IC50 at HBV core protein is < 5 µM.
On to `O=C(c1cc2c(F)c(F)ccc2[nH]1)N1CCc2[nH]nc(C3CCCO3)c2C1` (stereo not drawn) [Example 338, 4,5-difluoro-2-[3-(oxolan-2-yl)-1H,4H,5H,6H,7H-pyrazolo[4,3-c]pyridine-5-carbonyl]-1H-indole], for which, in data set [1], the CC50 at 6 days was > 10 µM. Besides, the half-maximal effective concentration (EC50) with HBV is < 1 µM. Besides, the IC50 on HBV core protein was < 5 µM.
For `O=C(c1cc2c(F)cc(F)cc2[nH]1)N1CCc2[nH]nc(C3CCCO3)c2C1` (stereo not drawn) [Example 339, 4,6-difluoro-2-[3-(oxolan-2-yl)-1H,4H,5H,6H,7H-pyrazolo[4,3-c]pyridine-5-carbonyl]-1H-indole] the same measures were > 10 µM, < 1 µM and < 5 µM.
As for `CCc1cc(F)cc2[nH]c(C(=O)N3CCc4[nH]nc(C5CCCO5)c4C3)cc12` (stereo not drawn) [Example 340, 4-ethyl-6-fluoro-2-[3-(oxolan-2-yl)-1H,4H,5H,6H,7H-pyrazolo[4,3-c]pyridine-5-carbonyl]-1H-indole], the CC50 at 6 days in data set [1] is > 10 µM. In addition, the EC50 in the data set on HBV is < 1 µM. Also, the IC50 on HBV core protein was < 5 µM.
As to `O=C(c1cc2c(Cl)cc(F)cc2[nH]1)N1CCc2[nH]nc(C3CCCO3)c2C1` (stereo not drawn) [Example 341, 4-chloro-6-fluoro-2-[3-(oxolan-2-yl)-1H,4H,5H,6H,7H-pyrazolo[4,3-c]pyridine-5-carbonyl]-1H-indole], the CC50 at 6 days in data set [1] is > 10 µM. Moreover, the EC50 with HBV is < 1 µM. In addition, on HBV core protein, the 50% inhibitory concentration (IC50) was < 5 µM.
Consider `Cc1cc(F)cc2[nH]c(C(=O)N3CCc4[nH]nc(C5CCCO5)c4C3)cc12` (stereo not drawn) [Example 342, 6-fluoro-4-methyl-2-[3-(oxolan-2-yl)-1H,4H,5H,6H,7H-pyrazolo[4,3-c]pyridine-5-carbonyl]-1H-indole], for which the CC50 at 6 days in data set [1] was > 10 µM. For the same compound, the EC50 in the data set with HBV is < 1 µM. Besides, at HBV core protein, the IC50 is < 5 µM.
Turning to `O=C(c1cc2ccccc2[nH]1)N1CCc2[nH]nc(C34CC(C3)C4)c2C1` [Example 343, 2-(3-{bicyclo[1.1.1]pentan-1-yl}-1H,4H,5H,6H,7H-pyrazolo[4,3-c]pyridine-5-carbonyl)-1H-indole], the CC50 at 6 days in data set [1] is > 10 µM. Further, the EC50 in the data set with HBV was < 1 µM. Further, the IC50 on HBV core protein is < 5 µM.
For `O=C(c1cc2ccccc2[nH]1)N1CCc2[nH]nc(C3CCCO3)c2C1` (stereo not drawn) [Example 344, 2-[3-(oxolan-2-yl)-1H,4H,5H,6H,7H-pyrazolo[4,3-c]pyridine-5-carbonyl]-1H-indole], in data set [1], the CC50 at 6 days is > 10 µM. Moreover, the EC50 with HBV is < 1 µM. Besides, the IC50 at HBV core protein was < 5 µM.
The matching figures for `CN(C(=O)c1n[nH]c2c1CN(C(=O)c1cc3ccccc3[nH]1)CC2)C1(COCC(F)(F)F)CC1` [Example 359, 5-(1H-indole-2-carbonyl)-N-methyl-N-{1-[(2,2,2-trifluoroethoxy)methyl]cyclopropyl}-1H,4H,5H,6H,7H-pyrazolo[4,3-c]pyridine-3-carboxamide]: > 10 µM, < 1 µM and < 5 µM.
Take `CN(C(=O)c1n[nH]c2c1CN(C(=O)c1cc3ccccc3[nH]1)CC2)C1(COCC(F)F)CC1` [Example 360, N-{1-[(2,2-difluoroethoxy)methyl]cyclopropyl}-5-(1H-indole-2-carbonyl)-N-methyl-1H,4H,5H,6H,7H-pyrazolo[4,3-c]pyridine-3-carboxamide]: the CC50 at 6 days in data set [1] was > 10 µM. Further, the EC50 in the data set with HBV was < 1 µM. Besides, at HBV core protein, the IC50 is < 5 µM.
Take `CN(C(=O)c1n[nH]c2c1CN(C(=O)c1cc3ccccc3[nH]1)CC2)C1(CC#N)CC1` [Example 361, N-[1-(cyanomethyl)cyclopropyl]-5-(1H-indole-2-carbonyl)-N-methyl-1H,4H,5H,6H,7H-pyrazolo[4,3-c]pyridine-3-carboxamide]: the CC50 at 6 days in data set [1] is > 10 µM. Further, the EC50 with HBV is 1 to 25 µM. Also, the 50% inhibitory concentration (IC50) on HBV core protein is < 5 µM.
Take `CCOCC1(N(C)C(=O)c2[nH]nc3c2CN(C(=O)c2cc4c(F)cc(F)cc4[nH]2)CC3)CC1` [Example 363, 5-(4,6-difluoro-1H-indole-2-carbonyl)-N-[1-(ethoxymethyl)cyclopropyl]-N-methyl-2H,4H,5H,6H,7H-pyrazolo[4,3-c]pyridine-3-carboxamide]: the CC50 at 6 days in data set [1] was > 10 µM. In the data set on HBV, the EC50 was < 1 µM. For the same compound, at HBV core protein, the IC50 was < 5 µM.
For `CCOCC1(N(C)C(=O)c2[nH]nc3c2CN(C(=O)c2cc4c(Cl)c(F)ccc4[nH]2)CC3)CC1` [Example 364, 5-(4-chloro-5-fluoro-1H-indole-2-carbonyl)-N-[1-(ethoxymethyl)cyclopropyl]-N-methyl-2H,4H,5H,6H,7H-pyrazolo[4,3-c]pyridine-3-carboxamide] the same measures were > 10 µM, < 1 µM and < 5 µM.
